Data on 23 compounds can be found in patent US9133191B2, “Substituted triazine derivatives and use thereof as stimulators of soluble guanylate cyclase” (Bayer Intellectual Property GmbH, priority 2012, dated 2015).

In assay [1] the test system is recombinant guanylate cyclase reporter cell line. The experiment in a line: Effect on a recombinant guanylate cyclase reporter cell line. Format: cell-based. Conditions: read-out: MEC (minimum effective concentration). The procedure: B-2. Effect on a Recombinant Guanylate Cyclase Reporter Cell Line
The cellular effect of the compounds according to the invention is determined using a recombinant guanylate cyclase reporter cell line, as described in F. Wunder et al., Anal. Biochem. 339, 104-112 (2005).

For the next assay, the system named is aorta rings. The assay can be described thus: Vasorelaxant effect in vitro (phenylephrine-contracted rabbit aorta rings). The arrangement: species or system Rabbits. Conditions: Oryctolagus cuniculus, phenylephrine contraction, concentration needed to reduce the control value by 50%. The procedure: B-1. Vasorelaxant Effect In Vitro
Rabbits are stunned by a blow to the neck and exsanguinated. The aorta is removed, freed from adhering tissue and divided into rings of a width of 1.5 mm. The rings are placed individually under an initial tension in 5 ml organ baths with Krebs-Henseleit solution which is at 37° C., is gassed with carbogen and has the following composition (in each case mM): sodium chloride: 119; potassium chloride: 4.8; calcium chloride dihydrate: 1; magnesium sulphate heptahydrate: 1.4; potassium dihydrogenphosphate: 1.2; sodium bicarbonate: 25; glucose: 10. The contractile force is determined with Statham UC2 cells, amplified and digitalized using A/D transducers (DAS-1802 HC, Keithley Instruments Munich), and recorded in parallel on linear recorders. To produce a contraction, phenylephrine is added to the bath cumulatively in increasing concentration. After several control cycles, the substance to be investigated is added in each further run in increasing dosage in each case, and the height of the contraction achieved is compared with the height of the contraction reached in the last preceding run. This is used to calculate the concentration needed to reduce the magnitude of the control value by 50% (IC50 value). The standard administration volume is 5 μl; the DMSO content in the bath solution corresponds to 0.1%.

The structures appear in SMILES notation.

For the compound `COc1ncccc1-c1nnc(-c2nn(Cc3ccccc3F)c3ncccc23)nc1N` [Example 8, 3-[1-(2-Fluorobenzyl)-1H-pyrazolo[3,4-b]pyridin-3-yl]-6-(2-methoxypyridin-3-yl)-1,2,4-triazine-5-amine], the minimal effective concentration in assay [1] was found to be 0.1 µM.

For orientation: IC50 means the concentration that inhibits the measured activity by half. With `CC(C)c1nnc(-c2nn(Cc3ccccc3F)c3ncccc23)nc1O` [Example 21, 3-[1-(2-Fluorobenzyl)-1H-pyrazolo[3,4-b]pyridin-3-yl]-6-isopropyl-1,2,4-triazin-5-ol], in assay [1], the minimal effective concentration came out at 0.3 µM. Moreover, in the assay with aorta rings, the IC50 amounted to 916 nM.

Turning to `Oc1nc(-c2nn(Cc3ccccc3F)c3ncccc23)nnc1C1CCCC1` [Example 15, 6-Cyclopentyl-3-[1-(2-fluorobenzyl)-1H-pyrazolo[3,4-b]pyridin-3-yl]-1,2,4-triazin-5-ol], in assay [1], the minimal effective concentration was 1 µM. The compound also displayed an IC50 with aorta rings of 1090 nM.

On to `Nc1nc(-c2nn(Cc3ccccc3F)c3ncccc23)nnc1-c1cccnc1` [Example 7, 3-[1-(2-Fluorobenzyl)-1H-pyrazolo[3,4-b]pyridin-3-yl]-6-(pyridin-3-yl)-1,2,4-triazine-5-amine], for which, in assay [1], the minimal effective concentration came out at 0.1 µM.

Take `Oc1nc(-c2nn(Cc3ccccc3F)c3ncccc23)nnc1C(F)(F)F` [Example 13, 3-[1-(2-Fluorobenzyl)-1H-pyrazolo[3,4-b]pyridin-3-yl]-6-(trifluoromethyl)-1,2,4-triazin-5-ol]: the minimal effective concentration in assay [1] is 3 µM. Also, the IC50 in the assay with aorta rings was determined as 2630 nM.

On to `CS(=O)(=O)Nc1nnc(-c2nn(Cc3ccccc3F)c3ncccc23)nc1N` [Example 11, N-{5-Amino-3-[1-(2-fluorobenzyl)-1H-pyrazolo[3,4-b]pyridin-3-yl]-1,2,4-triazin-6-yl}methanesulphonamide], for which, in assay [1], the minimal effective concentration was 1 µM. In the assay on aorta rings, the IC50 came to 2960 nM.

`CCc1nnc(-c2nn(Cc3ccccc3F)c3ncccc23)nc1N` [Example 20, 6-Ethyl-3-[1-(2-fluorobenzyl)-1H-pyrazolo[3,4-b]pyridin-3-yl]-1,2,4-triazine-5-amine]: the minimal effective concentration in assay [1] was 0.1 µM. Also, half-maximal inhibition with aorta rings (IC50) was put at 30 nM.

As for `Cc1noc(C)c1-c1nnc(-c2nn(Cc3ccccc3F)c3ncccc23)nc1N` [Example 3, 6-(3,5-Dimethyl-1,2-oxazol-4-yl)-3-[1-(2-fluorobenzyl)-1H-pyrazolo[3,4-b]pyridin-3-yl]-1,2,4-triazine-5-amine], in assay [1], the minimal effective concentration turned out to be 0.3 µM.

In the case of `Cc1ncccc1-c1nnc(-c2nn(Cc3ccccc3F)c3ncccc23)nc1N` [Example 2, 3-[1-(2-Fluorobenzyl)-1H-pyrazolo[3,4-b]pyridin-3-yl]-6-(2-methylpyridin-3-yl)-1,2,4-triazine-5-amine], the minimal effective concentration in assay [1] was determined as 0.1 µM.

Take `Nc1nnc(-c2nn(Cc3ccccc3F)c3ncccc23)nc1N` [Example 10, 3-[1-(2-Fluorobenzyl)-1H-pyrazolo[3,4-b]pyridin-3-yl]-1,2,4-triazine-5,6-diamine]: the minimal effective concentration in assay [1] amounted to 0.1 µM.

Turning to `CC(F)c1nnc(-c2nn(Cc3ccccc3F)c3ncccc23)nc1N` (stereo not shown) [Example 23, 3-[1-(2-Fluorobenzyl)-1H-pyrazolo[3,4-b]pyridin-3-yl]-6-(1-fluoroethyl)-1,2,4-triazine-5-amine], the minimal effective concentration in assay [1] stood at 0.1 µM. The compound also came in with an IC50 in the assay on aorta rings of 23 nM.

On to `Cn1cc(-c2nnc(-c3nn(Cc4ccccc4F)c4ncccc34)nc2N)cn1` [Example 6, 3-[1-(2-Fluorobenzyl)-1H-pyrazolo[3,4-b]pyridin-3-yl]-6-(1-methyl-1H-pyrazol-4-yl)-1,2,4-triazine-5-amine], for which the minimal effective concentration in assay [1] was 0.1 µM.

In the case of `COC(=O)Nc1nnc(-c2nn(Cc3ccccc3F)c3ncccc23)nc1N` [Example 12, Methyl {5-amino-3-[1-(2-fluorobenzyl)-1H-pyrazolo[3,4-b]pyridin-3-yl]-1,2,4-triazin-6-yl}carbamate], the minimal effective concentration in assay [1] was determined as 0.3 µM. Besides, in the assay with aorta rings, the IC50 came out at 112 nM.

On to `CCCc1nnc(-c2nn(Cc3ccccc3F)c3ncccc23)nc1N` [Example 18, 3-[1-(2-Fluorobenzyl)-1H-pyrazolo[3,4-b]pyridin-3-yl]-6-propyl-1,2,4-triazine-5-amine], for which, in assay [1], the minimal effective concentration came out at 0.1 µM. In addition, in the assay with aorta rings, the IC50 turned out to be 30 nM.

`Nc1nc(-c2nn(Cc3ccccc3F)c3ncccc23)nnc1-c1ccncc1` [Example 5, 3-[1-(2-Fluorobenzyl)-1H-pyrazolo[3,4-b]pyridin-3-yl]-6-(pyridin-4-yl)-1,2,4-triazine-5-amine]: the minimal effective concentration in assay [1] came to 0.1 µM.

In the case of `CCc1nnc(-c2nn(Cc3ccccc3F)c3ncccc23)nc1O` [Example 19, 6-Ethyl-3-[1-(2-fluorobenzyl)-1H-pyrazolo[3,4-b]pyridin-3-yl]-1,2,4-triazin-5-ol], the minimal effective concentration in assay [1] is 1 µM.

On to `CCCc1nnc(-c2nn(Cc3ccccc3F)c3ncccc23)nc1O` [Example 17, 3-[1-(2-Fluorobenzyl)-1H-pyrazolo[3,4-b]pyridin-3-yl]-6-propyl-1,2,4-triazin-5-ol], for which the minimal effective concentration in assay [1] worked out at 1 µM.

For the compound `Nc1nc(-c2nn(Cc3ccccc3F)c3ncccc23)nnc1C(F)(F)F` [Example 14, 3-[1-(2-Fluorobenzyl)-1H-pyrazolo[3,4-b]pyridin-3-yl]-6-(trifluoromethyl)-1,2,4-triazine-5-amine], the minimal effective concentration in assay [1] was 0.03 µM. The compound also came in with an IC50 with aorta rings of 52 nM.

Turning to `Nc1nc(-c2nn(Cc3ccccc3F)c3ncccc23)nnc1C1CCCC1` [Example 16, 6-Cyclopentyl-3-[1-(2-fluorobenzyl)-1H-pyrazolo[3,4-b]pyridin-3-yl]-1,2,4-triazine-5-amine], the minimal effective concentration in assay [1] came out at 0.03 µM. Moreover, in the assay with aorta rings, inhibition was half-maximal at 25 nM (IC50).

Take `Cc1cc(-c2nnc(-c3nn(Cc4ccccc4F)c4ncccc34)nc2N)ccn1` [Example 9, 3-[1-(2-Fluorobenzyl)-1H-pyrazolo[3,4-b]pyridin-3-yl]-6-(2-methylpyridin-4-yl)-1,2,4-triazine-5-amine]: in assay [1], the minimal effective concentration was 0.1 µM.

Take `Nc1nc(-c2nn(Cc3ccccc3F)c3ncccc23)nnc1-c1cncc(F)c1` [Example 1, 3-[1-(2-Fluorobenzyl)-1H-pyrazolo[3,4-b]pyridin-3-yl]-6-(5-fluoropyridin-3-yl)-1,2,4-triazine-5-amine]: the minimal effective concentration in assay [1] stood at 0.1 µM.

As to `COc1ccc(-c2nnc(-c3nn(Cc4ccccc4F)c4ncccc34)nc2N)cn1` [Example 4, 3-[1-(2-Fluorobenzyl)-1H-pyrazolo[3,4-b]pyridin-3-yl]-6-(6-methoxypyridin-3-yl)-1,2,4-triazine-5-amine], the minimal effective concentration in assay [1] was found to be 0.03 µM.

Take `CC(C)c1nnc(-c2nn(Cc3ccccc3F)c3ncccc23)nc1N` [Example 22, 3-[1-(2-Fluorobenzyl)-1H-pyrazolo[3,4-b]pyridin-3-yl]-6-isopropyl-1,2,4-triazine-5-amine]: the minimal effective concentration in assay [1] amounted to 0.1 µM. The compound also had an IC50 in the assay with aorta rings of 27 nM.
